Values quoted from earlier work, collected in patent publication US20190105268A1, “Viscoelastic Gel of Liraglutide Adapted for Once-Weekly or Once Bi-Weekly Administration” (Sun Pharma Advanced Research Company Limited, priority 2016, published 2019).

Substance: liraglutide
- solubility in DMSO (DMSO): slightly soluble
- solubility in ethanol (ethanol): 1100 µg/mL
- solubility in methanol (methanol): up to 68 mg/ml
- solubility in water (water): insoluble to slightly soluble
